Experimental data as given in patent US20190105367A1, “ANTIMICROBIAL 4-OXOQUINOLIZINES” (Emergent Product Development Gaithersburg Inc., priority 2011, published 2019).
Values after ≈ are worked out from the molar mass of the structure shown. Like-named read-outs stand apart in the source and are kept apart here.

Experiments:
[1] = test system: strains of A. baumannii and one strain of Acinetobacter sp.; assay: MIC with sub-inhibitory concentrations (0.25x MIC) of polymyxin B, panel of Acinetobacter strains (Example 4); type: cell-based
A. baumannii ATCC 19606 = assay: MIC without and with sub-inhibitory polymyxin B (Example 4); type: cell-based, Acinetobacter baumannii; details: A. baumannii ATCC 19606
A. baumannii J2 = assay: as above; type: cell-based, Acinetobacter baumannii; details: for MIC without PB/MIC + PB: A. baumannii J2; for MIC: Acinetobacter baumannii
[2] = test system: Acinetobacter sp. (H064200250); assay: as above; type: cell-based
A. baumannii A329 = assay: Preliminary MBC without and with sub-inhibitory polymyxin B (Example 4); type: cell-based, Acinetobacter baumannii; details: A. baumannii A329, +0.06 μg/ml PB, 2nd experiment
A. baumannii A387 [3] = assay: MIC without and with sub-inhibitory polymyxin B (Example 4); type: cell-based, Acinetobacter baumannii; details: A. baumannii A387
A. baumannii A387 [4] = assay: Preliminary MBC without and with sub-inhibitory polymyxin B (Example 4); type: cell-based, Acinetobacter baumannii; details: A. baumannii A387, +0.06 μg/ml PB, 2nd experiment
A. baumannii A390 [5] = assay: MIC without and with sub-inhibitory polymyxin B (Example 4); type: cell-based, Acinetobacter baumannii; details: +0.06 μg/ml PB, 2nd experiment
A. baumannii A14 [6] = assay: Preliminary MBC without and with sub-inhibitory polymyxin B (Example 4); type: cell-based, Acinetobacter baumannii; details: A. baumannii A14, +0.06 μg/ml PB, 2nd experiment
Description: (§1) The plates were incubated for 18-20 hours at 37° C. The MBC was read as the lowest concentration at which colony growth was ca. 90% less than the positive control (i.e. usually where single colonies or no colonies were observed).

A. baumannii A390 [7] = assay: as above; type: cell-based, Acinetobacter baumannii; details: Acinetobacter baumannii, A390, A. baumannii A390, +0.06 μg/ml PB, 2nd experiment
Description: as §1

A. baumannii A473 [8] = assay: as above; type: cell-based, Acinetobacter baumannii; details: A. baumannii A473, +0.06 μg/ml PB, 2nd experiment
Description: as §1

A. baumannii NCTC 13301 [9] = assay: as above; type: cell-based, Acinetobacter baumannii; details: Acinetobacter baumannii
Description: as §1

A. baumannii A401 [10] = assay: MIC without and with sub-inhibitory polymyxin B (Example 4); type: cell-based, Acinetobacter baumannii; details: A baumannii A 401; ratio, PB 0.06 μg/ml; 1st experiment
A. baumannii A401 [11] = assay: Preliminary MBC without and with sub-inhibitory polymyxin B (Example 4); type: cell-based, Acinetobacter baumannii; details: Acinetobacter baumannii
A. baumannii A472 [12] = assay: MIC without and with sub-inhibitory polymyxin B (Example 4); type: cell-based, Acinetobacter baumannii; details: for MIC: Acinetobacter baumannii
A. baumannii A472 [13] = assay: Preliminary MBC without and with sub-inhibitory polymyxin B (Example 4); type: cell-based, Acinetobacter baumannii; details: Acinetobacter baumannii, preliminary MBC
A. baumannii A473 [14] = assay: MIC without and with sub-inhibitory polymyxin B (Example 4); type: cell-based, Acinetobacter baumannii; details: A. baumannii A473; +0.06 μg/ml PB; 2nd experiment
A. baumannii A489 = assay: as above; type: cell-based, Acinetobacter baumannii; details: for MIC without PB/MIC + PB: A. baumannii A489; for MIC: Acinetobacter baumannii
A. baumannii NCTC 13301 [15] = assay: as above; type: cell-based, Acinetobacter baumannii
A. baumannii NCTC 13301 [16] = assay: as above; type: cell-based, Acinetobacter baumannii; details: +[…] PB, 2nd experiment
A. baumannii A14 [17] = assay: as above; type: cell-based, Acinetobacter baumannii; details: 1st experiment
A. baumannii A14 [18] = assay: as above; type: cell-based, Acinetobacter baumannii; details: A. baumannii A14; +0.06 μg/ml PB; 2nd experiment
A. baumannii A14 [19] = assay: Preliminary MBC without and with sub-inhibitory polymyxin B (Example 4); type: cell-based, Acinetobacter baumannii; details: A. baumannii A14; +0.06 μg/ml polymyxin B; preliminary MBC; 1st experiment
[20] = ratio, PB 0.06 μg/ml, 1st experiment

COc1c(N2C[C@@H]3CCCN[C@@H]3C2)c(F)cc2c(=O)c(C(=O)O)cn(C3CC3)c12 [Moxifloxacin]
Range ratios MIC without PB/MIC with PB Oct. 1, 2008 n = 8 ([1]; 1st experiment): 0.5-4 | MIC range with PB (0.25x MIC) Oct. 1, 2008 n = 8 ([1]; 1st experiment, […] polymyxin B, ATCC 19606, A329, A390 and A473 not taken): 4 to 128 µg/mL | Range ratios MIC without PB/MIC with PB Oct. 14, 2008 n = 11 ([1]; 2nd experiment): 1-8 | MIC range with PB (0.25x MIC) Oct. 14, 2008 n = 11 ([1]; 2nd experiment, 0.06 μg/ml polymyxin B, all strains except the ATCC strain): 4 to 32 µg/mL | MIC without PB/MIC + PB (A. baumannii ATCC 19606; +0.06 μg/ml PB, 2nd experiment): 2 | MIC without PB/MIC + PB (A. baumannii ATCC 19606; [20]): 1 | MIC without PB/MIC + PB (A. baumannii J2; +[…] PB, 2nd experiment): 4 | MIC without PB/MIC + PB (A. baumannii J2; ratio, PB […], 1st experiment): 4 | MIC (A. baumannii J2; J2, A. baumannii J2, +[…] PB, 2nd experiment, read-out: MIC): 8 µg/mL (≈ 19.9 µM) | MIC (A. baumannii J2; J2, read-out: MIC +[…] PB, A. baumannii J2, +[…] polymyxin B, 1st experiment): 8 µg/mL (≈ 19.9 µM) | MIC without PB/MIC + PB ([2]; Acinetobacter spp. H064200250 (OXA51), +[…] PB, 2nd experiment): 1 | MIC without PB/MIC + PB ([2]; Acinetobacter spp. H064200250, ratio, PB […], 1st experiment): 1 | MBC (A. baumannii A329): 32 µg/mL (≈ 79.7 µM) | MIC without PB/MIC + PB (A. baumannii A387 [3]; +0.06 μg/ml PB, 2nd experiment): 1 | MIC without PB/MIC + PB (A. baumannii A387 [3]; [20]): 1 | MBC (A. baumannii A387 [4]): 8 µg/mL (≈ 19.9 µM) | MIC without PB/MIC + PB (A. baumannii A390 [5]; A. baumannii A390): 2 | MIC (A. baumannii A390 [5]; Acinetobacter baumannii, A390, A. baumannii A390, read-out: MIC): 8 µg/mL (≈ 19.9 µM) | MBC (A. baumannii A14 [6]): 16 µg/mL (≈ 39.9 µM) | MBC (A. baumannii A390 [7]): 8 µg/mL (≈ 19.9 µM) | MBC (A. baumannii A473 [8]): 8 µg/mL (≈ 19.9 µM) | MBC (A. baumannii NCTC 13301 [9]; NCTC13301, A. baumannii NCTC 13301, +[…] PB, preliminary MBC, 2nd experiment): 8 µg/mL (≈ 19.9 µM) | MBC (A. baumannii NCTC 13301 [9]; NCTC13301, read-out: MBC +[…] PB): 128 µg/mL (≈ 319 µM) | MIC without PB/MIC + PB (A. baumannii A401 [10]): 2 | MBC (A. baumannii A401 [11]; A401, A baumannii A 401, +0.06 μg/ml PB, 2nd experiment): 8 µg/mL (≈ 19.9 µM) | MBC (A. baumannii A401 [11]; A401, read-out: MBC +0.06 μg/ml PB, A baumannii A 401, +0.06 μg/ml polymyxin B, 1st experiment): 8 µg/mL | MIC without PB/MIC + PB (A. baumannii A472 [12]; A. baumannii A472, ratio, PB […], 1st experiment): 0.5 | MIC (A. baumannii A472 [12]; A472, A. baumannii A472, +[…] PB, 2nd experiment, read-out: MIC): 4 µg/mL (≈ 9.96 µM) | MIC (A. baumannii A472 [12]; A472, read-out: MIC +[…] PB, A. baumannii A472, +[…] polymyxin B, 1st experiment): 32 µg/mL (≈ 79.7 µM) | MBC (A. baumannii A472 [13]; A472, A. baumannii A472, +[…] PB, 2nd experiment): 4 µg/mL (≈ 9.96 µM) | MBC (A. baumannii A472 [13]; A472, read-out: MBC +[…] PB, A. baumannii A472, +[…] polymyxin B, 1st experiment): 4 µg/mL (≈ 9.96 µM) | MIC without PB/MIC + PB (A. baumannii A473 [14]): 1 | MIC without PB/MIC + PB (A. baumannii A489; +[…] PB, 2nd experiment): 4 | MIC without PB/MIC + PB (A. baumannii A489; ratio, PB […], 1st experiment): 4 | MIC (A. baumannii A489; A489, A. baumannii A489, +[…] PB, 2nd experiment, read-out: MIC): 4 µg/mL (≈ 9.96 µM) | MIC (A. baumannii A489; A489, read-out: MIC +[…] PB, A. baumannii A489, +[…] polymyxin B, 1st experiment): 4 µg/mL (≈ 9.96 µM) | MIC without PB/MIC + PB (A. baumannii NCTC 13301 [15]; A. baumannii NCTC 13301, ratio, PB […], 1st experiment): 1 | MIC (A. baumannii NCTC 13301 [15]; Acinetobacter baumannii, NCTC13301, read-out: MIC +[…] PB): 128 µg/mL (≈ 319 µM) | MIC without PB/MIC + PB (A. baumannii NCTC 13301 [16]; A. baumannii NCTC 13301): 8 | MIC (A. baumannii NCTC 13301 [16]; Acinetobacter baumannii, NCTC13301, A. baumannii NCTC 13301, read-out: MIC): 8 µg/mL (≈ 19.9 µM) | MIC +0.06 μg/ml PB (A. baumannii A14 [17]; +0.06 μg/ml polymyxin B): 32 µg/mL | MIC without PB/MIC + PB (A. baumannii A14 [17]; ratio, PB 0.06 μg/ml): 1 | MIC (A. baumannii A14 [18]): 16 µg/mL (≈ 39.9 µM) | MIC without PB/MIC + PB (A. baumannii A14 [18]): 2 | MBC +0.06 μg/ml PB (A. baumannii A14 [19]): 32 µg/mL
